This data set relates to Mus musculus. Description: Toxicity in ip dosed CD1 mouse. Type of data set: organism-based. As to conditions: in vivo.

Take `C=C1CCC2OC(CC3=CC4/C(C)=C/CC(C)CC(/C=C/C(O)C5CC(O)C(O)C(CCC(O)/C=C/C(C)=C/CCC6=NCCC(C3)C64C)O5)OC(=O)CC3OC(C(O)CC1C)C(O)C3OS(=O)(=O)O)C(O)CC2O` (stereo unspecified) [PROROCENTROLIDE B]: the Activity result is given as “Toxic”.

Source of the values: ChEMBL document CHEMBL1158293, “Isolation and structure of prorocentrolide B, a fast-acting toxin from Prorocentrum maculosum” (J Nat Prod, 1996).
